Data published in patent US10981958B2, “Peptide modulator of purinergic receptors” (priority 2016, dated 2021).
Where no end group is shown, it is not given here.

How the values were obtained:
[1] = molecular target: T1, P2X2/3 receptors (Rattus norvegicus, UniProt P49653+P49654); conditions: agonist sensitivity, dorsal root ganglia neurons; read-out: sensitivity of P2X2/3 receptor to agonist (Kd); cited from earlier work
T1 construct: In the membranes of dorsal root ganglia, along with P2X3 receptors, P2X2 and P2X2/3 receptors are also found; endogenous in cells; host or cells: acutely isolated dorsal root ganglion neurons of 9-12-day Wistar rats
T1 sequence (P49653 1-472): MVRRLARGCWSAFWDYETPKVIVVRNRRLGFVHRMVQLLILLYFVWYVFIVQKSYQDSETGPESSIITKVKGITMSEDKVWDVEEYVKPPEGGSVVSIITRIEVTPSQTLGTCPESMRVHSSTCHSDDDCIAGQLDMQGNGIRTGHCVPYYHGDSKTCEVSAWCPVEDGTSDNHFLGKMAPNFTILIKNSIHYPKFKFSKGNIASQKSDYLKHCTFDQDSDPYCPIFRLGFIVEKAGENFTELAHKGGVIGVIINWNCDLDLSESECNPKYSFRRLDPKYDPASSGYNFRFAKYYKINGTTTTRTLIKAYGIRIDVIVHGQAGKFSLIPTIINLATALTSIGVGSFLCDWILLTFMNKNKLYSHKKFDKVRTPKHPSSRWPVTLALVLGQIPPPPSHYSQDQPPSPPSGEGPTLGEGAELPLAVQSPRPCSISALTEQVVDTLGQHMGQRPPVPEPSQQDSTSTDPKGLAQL
T1 sequence (P49654 1-397): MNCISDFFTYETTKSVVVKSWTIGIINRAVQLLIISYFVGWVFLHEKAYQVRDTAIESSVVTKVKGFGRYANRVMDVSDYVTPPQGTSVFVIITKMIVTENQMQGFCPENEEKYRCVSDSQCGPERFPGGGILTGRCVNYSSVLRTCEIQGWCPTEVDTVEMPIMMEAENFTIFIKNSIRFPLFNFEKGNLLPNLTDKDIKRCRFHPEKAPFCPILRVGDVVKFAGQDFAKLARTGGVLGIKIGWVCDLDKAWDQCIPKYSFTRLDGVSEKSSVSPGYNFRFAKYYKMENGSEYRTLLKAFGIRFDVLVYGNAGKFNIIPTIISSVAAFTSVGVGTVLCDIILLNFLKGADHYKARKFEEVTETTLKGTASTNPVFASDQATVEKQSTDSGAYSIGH

[2] = molecular target: T2, P2X2 receptors (Rattus norvegicus, UniProt P49653); conditions: agonist activation; cited from earlier work
T2 construct: In the membranes of dorsal root ganglia, along with P2X3 receptors, P2X2 and P2X2/3 receptors are also found; endogenous in cells; host or cells: acutely isolated dorsal root ganglion neurons of 9-12-day Wistar rats
T2 sequence (P49653 1-472): T1 sequence (P49653 1-472)

[3] = molecular target: P2X3 receptors (Rattus norvegicus, UniProt P49654); conditions: PT6 50 nM; rat sensory (dorsal root ganglia) neurons; agonist CTP 100 μM; holding potential −60 mV
Procedure: Neurons for the experiments are isolated from dorsal root ganglia of 9-12-day Wistar rats. The ganglia are placed to a Petri dish filled with the extracellular solution (130 mM NaCl, 5 mM KCl, 2 mM CaCl2, 2 mM MgCl2, 20 mM HEPES, pH 7.4) at room temperature, and then transferred to the enzyme solution (1 mg of trypsin and 2 mg of collagenase in 2 ml of the extracellular solution) heated up to 35° C., and incubated for 10 min. Then the ganglia are rinsed thoroughly with a pure (without enzymes) extracellular solution in another Petri dish. Single cells are isolated from the rinsed ganglia using fine needles. A dish with single cells is transferred to the electrophysiological unit. The experiments begin after all cells are settled to the dish bottom in 30 min after isolation.
Electrophysiological tests are performed using the whole-cell configuration of the classic method of patch clamp and the approach of a rapid application of a substance (agonist), which binds to P2X3 receptors and induces ion channel opening. The electrophysiological setup consists of three parts: microscope; sample application system (“jumping table”; Pharma Robot, Ukraine); and recording system of the current flowing through channels in the cell plasma membrane. […] Currents are recorded at the holding potential of −60 mV and room temperature with a Model 2400 Patch Clamp Amplifier (A-M Systems, USA). […]

[4] = molecular target: T1, P2X2/3 receptors; test: Whole-cell patch clamp of P2X2/3-mediated currents in rat dorsal root ganglia neurons; assay type: cell-based; conditions: PT6 50 nM (FIG. 2)
Procedure: (§1) In the membranes of dorsal root ganglia, along with P2X3 receptors, P2X2 and P2X2/3 receptors are also found [Burgard E. C. et al. P2X receptor-mediated ionic currents in dorsal root ganglion neurons//J. Neurophysiol., 1999, V. 82, P. 1590-1598]. The time for exit of P2X3 receptors from desensitization is very large compared to P2X2 and P2X2/3 receptors. With the agonist application for 1 min, all observed responses, except for the first, are mediated by P2X2 and P2X2/3 receptors. The sensitivity of P2X2/3 receptor to ATP and α,β-methylene-ATP is similar (Kd ˜30 μM), and the minimal concentration of α,β-methylene-ATP necessary for activation of P2X2 receptors is at least 100 μM. The equivalence of ionic currents observed in response to consecutive application of ATP and α,β-methylene-ATP indicates a significant predominance of P2X2/3 receptors on the cell membrane. In cells, which generate ionic currents of various amplitude, i.e. greater in response to ATP application, and very low in response to application of α,β-methylene-ATP, the membrane contains mainly P2X2 receptors. […] Therefore, it has been established suddenly that peptide PT6 acts selectively on the receptors of P2X3 isoform and is a selective antagonist of purinergic P2X3 receptors.

[5] = molecular target: T2, P2X2 receptors; test: Whole-cell patch clamp of P2X2-mediated currents in rat dorsal root ganglia neurons; assay type: cell-based; conditions: PT6 50 nM (FIG. 2)
Procedure: as §1

Compound | Kd [1] [µM] | minimal concentration necessary for activation of P2X2 receptors [2] | decrease of the current amplitude mediated by P2X3 receptors (inhibition of currents) [3] [%] | effect on ionic currents mediated by P2X2/3 receptors [4] | effect on ionic currents mediated by P2X2 receptors [5]
Nc1ncnc2c1ncn2[C@@H]1O[C@H](COP(=O)(O)OP(=O)(O)OP(=O)(O)O)[C@@H](O)[C@H]1O [ATP, adenosine triphosphate] | ~30 |  |  |  | 
Nc1ncnc2c1ncn2[C@@H]1O[C@H](COP(=O)(O)CP(=O)(O)OP(=O)(O)O)[C@@H](O)[C@H]1O [α,β-methylene-ATP] | ~30 | at least 100 μM |  |  | 
GYCATKGIKCNDIHCCSGLKCDSKRKVCVKG (cysteine pairing not given here) [PT6] |  |  | 80 | does not affect | does not affect
